≈ marks a conversion by molar mass, not a printed value. Where two headings read alike, the source gives them in different places.
Key:
[1] = Solubility; type: physicochemical
[2] = system: Candida albicans ATCC 262778; assay: In vitro antifungal activity (growth inhibition, turbidimetric, liquid Sabouraud medium); type: cell-based; details: for IC50 (concentration inhibiting growth of fungi by 50%): 24 hours at 30° C., liquid Sabouraud medium
Protocol: The antifungal activity of compounds was determined following the standard for polyene macrolide procedure. The liquid Sabouraud medium was inoculated with 10^4 cells/ml of test organism Candida albicans ATCC 262778 and incubated for 24 hours at 30° C. with the tested antibiotic (serial dilutions). Amphotericin B was used as the reference. Compounds were dissolved in DMF and suitable amounts of the solutions were added to the medium. Turbidimetric method (660 nm) was applied to determine the degree of growth inhibition. The concentration of antibiotic at which the growth of fungi was inhibited by 50% was determined from the dose response curve. The obtained IC50 value characterized antifungal activity of the compound.

[3] = In vitro toxicity (haemolysis of human erythrocytes); type: cell-based; details: human, erythrocytes, 30 minutes at 37° C., read-out: EH50 (concentration at which 50% of hemolysis occurred)
Protocol: (§1) Toxicity of compounds in vitro against animal cells was determined using standard for polyene macrolides procedure, by the determination of the degree of haemolysis of human erythrocytes. Human erythrocytes isolated from fresh, citrated human blood were washed twice with cold saline. The cells were diluted 250 times with saline and equilibrated for 30 minutes at 37° C. Samples of erythrocytes were incubated with various concentrations of antibiotics (the base solution in DMF) for 30 minutes at 37° C. After centrifugation the lysis of erythrocytes was assessed by determination of the haemoglobin released to the solution. Optical density of the supernatant was measured at […]. The results were expressed by EH50 value, as concentration of antibiotic at which 50% of hemolysis occurred. The values of EH50 were read from a curve relating the degree of hemolysis with antibiotic dose.

[4] = system: human erythrocytes; assay: as above; type: cell-based; details: 30 minutes at 37° C.
Protocol: as §1

[5] = In vivo toxicity, maximum tolerated dose (MTD); details: mouse, in vivo, Balb/c mice
Protocol: (§2) In vivo toxicity was determined for methyl ester of N-methyl-N-D-fructosylamphotericin B L-aspartate as the maximum tolerated dose (MTD), and as the acute toxicity (LD50). To determine MTD dose the compound was dissolved in 5% solution of glucose, and administered intravenously and intraperitonealy to Balb/c mice in single and multiple doses.

[6] = system: Balb/c mice; assay: In vivo toxicity, maximum tolerated dose (MTD); details: intraperitoneal 100 mg/kg for 5 days, 20 days of observation
Protocol: as §2

[7] = system: Candida albicans; assay: Chemotherapeutic efficacy, systemic murine candidose model; type: in vivo; details: 840 h, intravenous, twice a day, 5 days, female Swiss Webster mice
Protocol: Candida albicans was grown overnight in Sabouraud dextrose broth at room temperature. The fungal cells were centrifuged, washed twice with 0.9% solution of sodium chloride, and suspended in physiological salt solution. Female Swiss Webster mice of 25 g weight, were injected intravenously with 10^5 cells of Candida in 0.2 ml of 0.9% sodium chloride solution. Initially, the infection was systemic, but by 2 to 3 days it was localized to the kidneys. Untreated animals usually died between 7 to 14 days post-infection. Three days post-infection, animals were treated intravenously, twice a day, for 5 consecutive days with a 5 to 6 hours interval. Preparation was administered as a solution in 5% glucose. […] After this time, the surviving animals were sacrificed, their kidneys were removed, homogenized in sterile water, and the homogenate was placed on Sabouraud dextrose agar, and the grown colonies of Candida were counted. […] The dose, called ED50, was calculated using a method given in J.Hyg.

[8] = system: Swiss Webster female mice; assay: Serum indexes after acute toxicity study; type: in vivo; details: in comparison with the control (5% glucose), after 7 days
Protocol: (§3) Various doses of the tested compound, and for comparison, amphotericin B in form of Fungizone, dissolved in 5% glucose were given intravenously to the animals. The administered volume of the solution was 0.5 ml. 0.5 ml of 5% solution of glucose was administered to mice as a control. Every dose of both preparations was administered to 5 mice. […] Next, the animals were killed, and some serum indexes were determined.

[9] = Acute toxicity (LD50); details: mouse, in vivo, iv
Protocol: as §3

## COC(=O)[C@H]1[C@@H]2C[C@@H](O[C@@H]3O[C@H](C)[C@@H](O)[C@H](N(C)CC4(O)OC[C@@H](O)[C@@H](O)[C@@H]4O)[C@@H]3O)/C=C/C=C/C=C/C=C/C=C/C=C/C=C/[C@H](C)[C@@H](O)[C@@H](C)[C@H](C)OC(=O)C[C@H](O)C[C@H](O)CC[C@@H](O)[C@H](O)C[C@H](O)C[C@](O)(C[C@@H]1O)O2 (single isomer, unassigned) [Example I, N-methyl-N-D-fructosylamphotericin B methyl ester]
[1]; under conditions of the haemolysis experiment, read-out: solubility limit (insoluble above)
  solubility: ≤ 350 µg/mL
[2]
  IC50 (concentration inhibiting growth of fungi by 50%): 0.12 µg/mL
[3]
  HC50 at 0.5 h: > 350 µg/mL

## N-methyl-N-D-fructosylvacidin methyl ester [Example IV]
[2]
  IC50 (concentration inhibiting growth of fungi by 50%): 0.01 µg/mL
[4]
  EH50 (concentration at which 50% of hemolysis occurred): 170 µg/mL

## COC(=O)[C@H]1[C@@H]2C[C@@H](O[C@@H]3O[C@H](C)[C@@H](O)[C@H](N(C)CC4(O)OC[C@@H](O)[C@@H](O)[C@@H]4O)[C@@H]3O)/C=C/C=C/C=C/C=C/C=C/C=C/C=C/[C@H](C)[C@@H](O)[C@@H](C)[C@H](C)OC(=O)C[C@H](O)C[C@H](O)CC[C@@H](O)[C@H](O)C[C@H](O)C[C@](O)(C[C@@H]1O)O2 (stereo partly drawn) [Example X, methyl ester of N-methyl-N-D-fructosylamphotericin B L-aspartate]
[1]; DMF, DMSO, 5% aqueous glucose
  solubility in N,N-dimethylformamide, dimethylsulphoxide and 5% water solution of glucose: soluble
[1]; water
  solubility in water: very well soluble in water
[2]; ATCC262778, 24 h, read-out: IC50 (concentration inhibiting growth of fungi by 50%)
  IC50: 0.125 µg/mL (≈ 0.112 µM)
[5]; ip, intraperitoneal, for 5 days, read-out: maximum multiple tolerated dose
  MTD: > 100 mg/kg
[5]; ip, intraperitoneal, single dose, in 5% glucose, read-out: maximum single tolerated dose (MTD)
  MTD: > 200 mg/kg
[5]; iv, single dose, in 5% glucose, read-out: maximum single tolerated dose (MTD)
  MTD: 100 mg/kg
[6]
  toxic effects: toxic effects were not observed
[4]; 30 min
  EH50 (concentration at which 50% of hemolysis occurred): above 350 μg/ml
[7]; 5 weeks observation, read-out: ED50 based on the survival
  ED50: 2.3 mg/kg
[7]; clearance of Candida from kidneys, read-out: ED50 based on the kidneys clearance
  ED50: 6 mg/kg
[8]
  level of aspartate aminotransferase: No increased level
  level of creatinine: No increased level
[9]
  LD50 at 168 h: 400 mg/kg

## C[C@@H]1[C@H](O)[C@@H](C)/C=C/C=C/C=C/C=C/C=C/C=C/C=C/[C@H](O[C@@H]2O[C@H](C)[C@@H](O)[C@H](N)[C@@H]2O)C[C@@H]2O[C@](O)(C[C@@H](O)C[C@@H](O)[C@H](O)CC[C@@H](O)C[C@@H](O)CC(=O)O[C@H]1C)C[C@H](O)[C@H]2C(=O)O [amphotericin B, reference compound]
[3]
  HC50 at 0.5 h: 1.5 µg/mL

## N-methyl-N-D-fructosylcandidin methyl ester [Example II]
[2]
  IC50 (concentration inhibiting growth of fungi by 50%): 0.75 µg/mL
[4]
  EH50 (concentration at which 50% of hemolysis occurred): above 300 μg/ml

## N-methyl-N-D-fructosylamphotericin B methyl ester [Example IX]
[2]
  IC50 (concentration inhibiting growth of fungi by 50%): 6.0 µg/mL

## COC(=O)[C@H]1[C@@H]2C[C@@H](O[C@@H]3O[C@H](C)[C@@H](O)[C@H](N(C)CC4(O)OC[C@@H](O)[C@@H](O)[C@@H]4O)[C@@H]3O)/C=C/C=C/C=C/C=C/C=C/C=C/C=C/[C@H](C)[C@@H](O)[C@@H](C)[C@H](C)OC(=O)C[C@H](O)C[C@H](O)CC[C@@H](O)[C@H](O)C[C@H](O)C[C@](O)(C[C@@H]1O)O2 (single isomer, unassigned) [Example VIII, N-methyl-N-D-fructosylamphotericin B methyl ester]
[2]
  IC50 (concentration inhibiting growth of fungi by 50%): 0.42 µg/mL
[4]; 30 min
  EH50 (concentration at which 50% of hemolysis occurred): above 200 μg/ml

## N-methyl-N-D-fructosylnystatin methyl ester [Example III]
[2]
  IC50 (concentration inhibiting growth of fungi by 50%): 6.8 µg/mL
[4]
  EH50 (concentration at which 50% of hemolysis occurred): above 300 μg/ml

## N-methyl-N-D-fructosylcandidin D methyl ester [Example V]
[2]
  IC50 (concentration inhibiting growth of fungi by 50%): 0.01 µg/mL
[4]
  EH50 (concentration at which 50% of hemolysis occurred): ≈ 180 μg/ml

## N-methyl-N-fructosyltrychomycin methyl ester [Example VI]
[2]
  IC50 (concentration inhibiting growth of fungi by 50%): 0.013 µg/mL
[4]
  EH50 (concentration at which 50% of hemolysis occurred): ≈ 165 μg/ml

## N-methyl-N-D-fructosylamphotericin B methyl ester [Example VII]
[2]
  IC50 (concentration inhibiting growth of fungi by 50%): 0.42 µg/mL

Reference: patent US5942495A, “Antibiotics” (BTG International Limited, priority 1997, dated 1999)
